Measurements: the NIST ThermoML archive (doi:10.1016/j.jct.2014.12.017)
Numbers after ± are expanded uncertainties.

Test: wn = mass fraction of the nth substance listed
Conditions: 297.15 K; 101 kPa; Liquid; Alternating current cell with electrodes; w1 = 0.1

Row | SMILES | electrical conductivity [S/m]
1 | CCCCn1cc[n+](C)c1.O=S(=O)([O-])C(F)(F)F [1-butyl-3-methylimidazolium trifluoromethanesulfonate] + O | 1.38 ± 0.014
2 | CCCCn1cc[n+](C)c1.N#CN=C=[N-] [1-butyl-3-methylimidazolium dicyanamide] + O | 1.9 ± 0.019
3 | Cn1cc[n+](CCO)c1.[Br-] [3-(2-hydroxyethyl)-1-methyl-1H-imidazolium bromide] + O | 3.58 ± 0.04
4 | CCCCn1cc[n+](C)c1.[O-][Cl+3]([O-])([O-])[O-] [1-butyl-3-methylimidazolium perchlorate] + O | 2.18 ± 0.02
5 | CCCCn1cc[n+](C)c1.COS(=O)(=O)[O-] [1-butyl-3-methylimidazolium methyl sulfate] + O | 1.727 ± 0.017
6 | CCCCn1cc[n+](C)c1.[Br-] [1-butyl-3-methylimidazolium bromide] + O | 2.87 ± 0.03
7 | CCCCn1cc[n+](C)c1.O=S(=O)([O-])O [1-butyl-3-methylimidazolium hydrogen sulfate] + O | 7.63 ± 0.08
8 | C[n+]1ccn(CCO)c1.[Cl-] [1-(2-hydroxyethyl)-3-methyl-1H-imidazolium chloride] + O | 4.19 ± 0.04
9 | CCCCn1cc[n+](C)c1.[Cl-] [1-butyl-3-methylimidazolium chloride] + O | 3.43 ± 0.03
